# Measurements as given in patent publication US8012751B2, “Differentiation of pluripotent embryonic stem cells” (Wisconsin Alumni Research Foundation, priority 2005, dated 2011).
# How the values were obtained:
# [1] = tested on: caspase-3-like activity in ES cells; assay: in vitro caspase-3 cell lysate assay; type: biochemical, human and mouse; settings: treatment with DEVD.fmk
# From the text: Activation of caspase-3 is widely considered a marker of the late stages of programmed cell death. In vivo, most of the caspase-3-like enzymatic activity is attributed to caspase-3 and -7. Applicants have therefore assayed caspase-3-like activity in undifferentiated human and mouse ES cell lines using an in vitro cell lysate assay (FIG. 1B, left). […] To further characterize the elevation of caspase-3-like activity in individual ES cells, applicants performed flow cytometry using an antibody specifically recognizing the activated form of caspase-3 (FIG. 1B, right). […] In ES cells, staining for activated caspase-3 was concentrated in the nucleus, with reduced staining in the cytosol (FIG. 1C). In intact embryos, moderate immunostaining of activated caspase-3 was present in all cells of the compacted morula, and in the ICM, but was largely absent in the trophectoderm (FIG. 1D).
# [2] = tested on: p85 fragment of PARP-1 in human ES cells; assay: Western immunoblotting for cleaved p85 PARP-1 fragment; type: cell-based; settings: human ES cells treated with DEVD.fmk
# Protocol: Cell lysates were collected from H1 Human ES cells grown on mouse embryonic fibroblasts, D3 Mouse ES cells, Human Foreskin Fibroblasts (HF), 19 MEFs, and apoptotic MEFs induced with 25 μl/ml of 3% H2O2. Cytosolic and mitochondrial lysates were isolated using the ApoAlert Cell Fractionation Kit (Clontech, Palo Alto, Calif.) and whole-cell lysates were isolated using M-PER Mammalian Protein Extraction Reagent (Pierce, Rockford, Ill.) with 1:1000 dilution of Protease Inhibitor Cocktail (Sigma) and Pefablock SC (final concentration 0.2 μg/ml)(Sigma). Lysates were run on SDS-PAGE gels, transferred to Trans-Blot Transfer Medium (Bio-Rad, Hercules, Calif.) and peroxidase-conjugated secondary antibodies were detected using Supersignal West Pico Chemiluminscent Substrate (Pierce). Cytochrome C was detected with 1:100 dilution of Cytochrome C Antibody (Clontech) and 1:2000 Goat Anti-Rabbit IgG (H+L) (Caltag Laboratories, Burlingame, Calif). COX4 was detected with dilutions of 1:1000 COX4 Antibody (Clontech) and 1:1000 Anti-mouse IgG (g)-Peroxidase (Roche, Basel, Switzerland). PARP was detected with dilutions of 1:400 anti-p85 PARP (rabbit polyclonal IgG) (Promega) and 1:5000 goat Anti-Rabbit IgG (H+L) (Caltag Laboratories).
# Human ES cells were plated out as small colonies on matrigel, mouse ES cells on gelatin. DEVD.fmk was added twice a day and half of the ES cell medium was changed daily. […]
# [3] = tested on: PARP-1 activity in human ES cells; assay: in vitro PARP activity assay; type: cell-based; settings: human ES cells treated with DEVD.fmk; p<0.01
# Protocol: (§1) Apoptotic cells were detected using the Annexin-V binding kit (ApoAlert, Clontech) or the TUNEL assay kit (DeadEnd, Promega). PARP activity was determined according to a protocol published by Bakondi and others (Bakondi et al., 2002). In order to detect activated caspase-3 or cleaved p85 PARP-1, cells were fixed in CytoFix (BD), permeablized in CytoPerm, and incubated at 1 μg/ml of anti-active caspase-3 antibody (Cellsignalling) or with 1 μg/ml anti-p85 PARP-1 (Promega) overnight at 4° C. The cells were then washed with CytoPern and incubated with secondary anti-rabbit FITC conjugated antibodies (1:200 dilution) for 60 minutes at room temperature. Mouse embryos were fixed in methanol:DMSO (4:1) (Sigma) overnight at 4° C., re-hydrated in 50% methanol, and then incubated with the primary antibodies (anti-p85 PARP-1 or anti-active caspase-3) in PBS with 2% nonfat instant skim milk and 0.5% Triton-X 100 with gentle shaking overnight at 4° C. Embryos were washed 6 times for 5 minutes at room temperature in PBS with 2% nonfat instant skim milk and 0.5% Triton-X 100 with gentle shaking and incubated in the same way with the secondary fluorescent antibody. Cells and embryos were visualized using a confocal laserscan microscope (Leica) or flow cytometry.
# Human ES cells were plated out as small colonies on matrigel, mouse ES cells on gelatin. […]
# human ES cells [4] = assay: Oct4 staining (flow cytometry / immunocytochemistry) of differentiation; type: cell-based
# Protocol: (§2) H1 human ES cells (WiCell) were cultured as previously described and incorporated by reference herein (Amit et al., 2000). Human ES cells were cultured under feeder-free conditions on culture flasks that were pre-coated with matrigel™ (Becton Dickinson Labware, Bedford, MA), using medium conditioned overnight on dense murine embryonic fibroblasts (MEFs) (Xu et al., 2001a). D3 mouse ES cells (ATCC) were cultured under feeder-free conditions in mouse ES cell medium, consisting of 85% Knock-Out DMEM supplemented with 15% Gibco KNOCKOUT Serum Replacement, 2.5 mM glutamine, 0.1 mM beta-mercaptoethanol (Sigma), and 1000 U/l LIF (Esgro) on gelatin-coated plates. Murine and human fibroblasts and the 293T cell lines were cultivated in DMEM +10% Fetal bovine serum (FBS) and 1% non essential amino acids.
# Cells were treated with trypsin/EDTA and washed with PBS (both reagents are available through Invitrogen Corp.) Dead cells were excluded from analysis by forward- and side-scatter gating. Eighteen samples were analyzed using a FACScan (Becton Dickinson) flow cytometer and Cellquest software (Becton Dickinson). A minimum of 50,000 events were acquired for each sample. For Oct4 expression studies cells were stained for Oct4 using monoclonal Oct4 antibody (1 μl/10^6 cells, available through Santa Cruz). Cells were analyzed by flow cytometry analysis in a fluorescence activated cell sorter. […]
# human ES cells [5] = assay: Annexin-V EGFP binding (programmed cell death); type: cell-based; settings: p=0.0011
# Protocol: as §1, with “Embryos were washed 6 times for 5 minutes at room temperature in PBS with 2% nonfat instant skim milk and 0.5% Triton-X 100 with gentle shaking and incubated in the same way with the secondary fluorescent antibody. Cells and embryos were visualized using a confocal laserscan microscope (Leica) or flow cytometry.” left out
# Cells were treated with trypsin/EDTA and washed with PBS (both reagents are available through Invitrogen Corp.) Dead cells were excluded from analysis by forward- and side-scatter gating. Eighteen samples were analyzed using a FACScan (Becton Dickinson) flow cytometer and Cellquest software (Becton Dickinson). […] Cells were analyzed by flow cytometry analysis in a fluorescence activated cell sorter. […]
# human ES cells [6] = assay: cell proliferation assay (MTS test); type: cell-based
# Protocol: Human ES cells were grown for the indicated time in 96-wells on Matrigel and a MTS test (CellTiter 96, Promega) was performed according to manufacturers′ instructions.
# Human ES cells were plated out as small colonies on matrigel, mouse ES cells on gelatin. DEVD.fmk was added twice a day and half of the ES cell medium was changed daily. As a control, the same volume of DEVD.fmk solvent (DMSO) was added and no significant effect on the number of undifferentiated cells was observed. Recombinant TAT-caspase-3rev was added 4 hours after application of caspase blocker and equal volumes of TAT protein served as controls. Mouse embryos were treated once in the 50 μl microdrop with the given concentration of DEVD.fmk or post-incubation 4 hours later with recombinant TAT-caspase-3rev.
# mouse morulas = assay: development of pre-implantation embryos to expanded blastocysts
# From the text: (§3) Three to nine-week-old female B6C3F1 mice (Charles Rivers) were superovulated with a single 10 IU intraperitoneal injection of Pregnant Mare's Serum Gonadotrophin (Gestyl, Diosynth B.V.—OSS). Forty-eight hours later, ovulation was triggered with a single 10 IU intraperitoneal injection of human Chorionic Gonadotrophin (hCG, Novarel/Ferring) and the female mice were mated with male BDF1 mice (Charles Rivers) of proven fertility. Two-cell stage embryos were flushed from the oviducts of the female mice 38 to 40 hours after the hCG injection using modified-Human Tubal Fluid medium (m-HTF, Irvine Scientific) supplemented with 0.5 mg/mL polyvinyl alcohol (PVA, Sigma). The resulting embryos were washed and cultured in the same medium. Groups of 10-15 embryos were cultured at 37° C. with 5% CO2/95% air in 50 μL drops of m-HTF medium covered with mineral oil (Ovoil, Vitrolife). In the outgrowth experiments, the zona pellucida was digested with pronase and embryos were plated out on gelatin in ES cell derivation medium with 1000 U/mL LIF.
# (§4) Human ES cells were plated out as small colonies on matrigel, mouse ES cells on gelatin. DEVD.fmk was added twice a day and half of the ES cell medium was changed daily. As a control, the same volume of DEVD.fmk solvent (DMSO) was added and no significant effect on the number of undifferentiated cells was observed. […]
# mouse embryos = assay: embryo culture outgrowth experiments; settings: treated embryos n=34
# From the text: as §3, §4
# human ES cells [7] = assay: microarray gene expression analysis of DEVD.fmk treated cells; type: cell-based
# From the text: Since ES cells differentiate relatively uniformly from their undifferentiated state into the spindle-shaped cells, we performed a microarray analysis of the differentiated human cells treated with DEVD.fmk. […] In both zebrafish and Xenopus, dickkopf genes have been associated with the development of mesoderm and endoderm. The identity of the differentiated cell type is most likely a common precursor of mesoderm and endoderm (“mesendoderm”).
# human ES cells [8] = assay: morphology and time of differentiation of treated ES cells; type: cell-based
# Protocol: as §2
# Human ES cells were plated out as small colonies on matrigel, mouse ES cells on gelatin. DEVD.fmk was added twice a day and half of the ES cell medium was changed daily. As a control, the same volume of DEVD.fmk solvent (DMSO) was added and no significant effect on the number of undifferentiated cells was observed. Recombinant TAT-caspase-3rev was added 4 hours after application of caspase blocker and equal volumes of TAT protein served as controls. […]
# [9] = versus undifferentiated ES cells
substance,measurement,setting,value
N-benzyloxycarbonyl-Asp-Glu-Val-Asp fluoromethylketone (DEVD; HELM PEPTIDE1{[O=C(OCc1ccccc1)[*:2]].D.E.V.D.[FC[*:1]]}$$$$V2.0; SMILES CC(C)[C@H](NC(=O)[C@H](CCC(=O)O)NC(=O)[C@H](CC(=O)O)NC(=O)OCc1ccccc1)C(=O)N[C@@H](CC(=O)O)C(=O)CF) [DEVD.fmk],caspase-3-like activity,[1],reduced this activity
same,p85 PARP-1 fragment in Western blot analysis,[2],disappearance
same,PARP-1 activity,[3],upregulated
same,induction of differentiation as measured by Oct4 staining,"human ES cells [4]; human ES cells, p<0.01",dose dependent induction of differentiation
same,Oct4 staining by immunocytochemistry,"human ES cells [4]; spindle-shaped cells after DEVD.fmk, data not shown",failed to stain for Oct4
same,rate of programmed cell death as measured by Annexin-V EGFP staining,human ES cells [5],dose-dependent reduction
same,decrease in proliferation of human ES cells,human ES cells [6]; after 3 days,no longer observed
same,proliferation of human ES cells,human ES cells [6]; first 48 hours after application,small decrease in proliferation
same,development to expanded blastocysts,mouse morulas; 200 μM DEVD.fmk,completely inhibiting development to expanded blastocysts
same,development of blastocysts,"mouse morulas; added to E2.0, E2.5, E3.0 mouse morulas, dose-dependent",inhibited the development of blastocysts
same,outgrowth: rind and core structures of extraembryonic endoderm overlying epiblast,mouse embryos,always failed to produce prominent rind and core structures
same,up-regulation of DKK4,"human ES cells [7]; microarray, FIG. 7",over 170 fold
same,upregulation of BMP4,human ES cells [7]; [9],45 X
same,upregulation of DKK4,human ES cells [7]; [9],137 X
same,upregulation of GATA-3,human ES cells [7]; [9],9 X
same,upregulation of WNT3,human ES cells [7]; [9],3 X
same,upregulation of WNT5A,human ES cells [7]; [9],5 X
same,upregulation of brachyury variant A,human ES cells [7]; [9],73 X
same,time to differentiate into morphologically uniform mesendoderm cells,human ES cells [8]; human ES cells incubated with caspase inhibitor,2-3 days
same,cell morphology,human ES cells [8]; human ES cells treated with DEVD.fmk,differentiated to a spindle shape cell with a much smaller nuclear-cytoplasmic ratio
